# Legend:
# Assay in all cases: discontinuous molybdate phosphate release assay
# [1] = target: T1, AtAPY1-δTM (Arabidopsis thaliana, UniProt Q9SQG2); type: biochemical
# T1 construct: gene APY1; 45 kDa theoretical
# T1 sequence (Q9SQG2 67-470): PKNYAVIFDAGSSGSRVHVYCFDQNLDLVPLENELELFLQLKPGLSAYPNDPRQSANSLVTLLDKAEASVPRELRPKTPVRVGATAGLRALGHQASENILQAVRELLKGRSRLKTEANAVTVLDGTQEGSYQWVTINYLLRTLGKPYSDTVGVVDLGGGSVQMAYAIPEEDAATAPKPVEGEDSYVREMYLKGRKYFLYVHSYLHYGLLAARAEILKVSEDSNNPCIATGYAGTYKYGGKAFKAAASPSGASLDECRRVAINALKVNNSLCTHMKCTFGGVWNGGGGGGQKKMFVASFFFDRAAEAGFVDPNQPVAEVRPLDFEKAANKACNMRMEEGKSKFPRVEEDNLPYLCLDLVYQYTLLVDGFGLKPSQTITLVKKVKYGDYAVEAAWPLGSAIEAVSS
# [2] = target: T2, AtAPY1 (Arabidopsis thaliana, UniProt Q9SQG2); type: biochemical; parameters: gene APY1; full-length with TM, C-terminal linker and His6 tag, HEK293 cells; Ni-NTA elution fraction, not enriched; 52 kDa theoretical
# T2 sequence (Q9SQG2 1-471): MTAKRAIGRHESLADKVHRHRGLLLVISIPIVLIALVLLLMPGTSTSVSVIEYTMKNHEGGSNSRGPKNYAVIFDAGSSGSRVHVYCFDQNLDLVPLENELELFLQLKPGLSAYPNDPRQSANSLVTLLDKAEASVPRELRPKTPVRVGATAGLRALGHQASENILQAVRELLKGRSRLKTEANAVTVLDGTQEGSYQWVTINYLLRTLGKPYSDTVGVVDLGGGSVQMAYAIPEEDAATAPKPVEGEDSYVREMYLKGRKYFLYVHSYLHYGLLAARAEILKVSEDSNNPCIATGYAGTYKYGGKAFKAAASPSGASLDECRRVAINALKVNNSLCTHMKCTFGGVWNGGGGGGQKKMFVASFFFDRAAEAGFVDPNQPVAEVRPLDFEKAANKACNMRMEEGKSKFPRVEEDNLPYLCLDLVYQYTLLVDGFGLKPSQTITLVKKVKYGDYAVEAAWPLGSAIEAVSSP
# [3] = target: T3, AtAPY1-GFP (Arabidopsis thaliana, UniProt Q9SQG2); type: biochemical; conditions: 3 mM UDP substrate, 2 mM MgCl2, pH 6.5, 30°C; immobilised enzyme
# T3 construct: gene APY1; full-length, C-terminal GFP fusion (GFP from residue 472; 80 kDa), 35S transgenic Arabidopsis seedlings, immobilised on anti-GFP plate
# T3 sequence (Q9SQG2 1-471): T2 sequence (Q9SQG2 1-471)
# [4] = target: T2, AtAPY1; parameters: gene APY1; conditions: 3 mM UDP substrate, 1 mM MgCl2, pH 6.5, 30°C
smiles,measurement,setting,value
Nc1nc2c(ncn2[C@@H]2O[C@H](COP(=O)(O)OP(=O)(O)O)[C@@H](O)[C@H]2O)c(=O)[nH]1 [GDP],discontinuous molybdate phosphate release assay,[1],"AtAPY1 with or without TM is limited to the nucleotides GDP, IDP and UDP"
same,discontinuous molybdate phosphate release assay,[2],"only GDP, IDP and UDP were hydrolyzed by AtAPY1"
O=c1ccn([C@@H]2O[C@H](COP(=O)(O)OP(=O)(O)O)[C@@H](O)[C@H]2O)c(=O)[nH]1 [UDP],discontinuous molybdate phosphate release assay,[1],"AtAPY1 with or without TM is limited to the nucleotides GDP, IDP and UDP"
same,discontinuous molybdate phosphate release assay,[2],"only GDP, IDP and UDP were hydrolyzed by AtAPY1"
[O]=[V]([OH])([OH])[OH] [vanadate],% inhibition,[3],The same inhibition pattern was found for AtAPY1-GFP
same,% inhibition at 1 mM,[4],54%

# Reference: paper PMC4379058, “The Biochemical Properties of the Arabidopsis Ecto-Nucleoside Triphosphate Diphosphohydrolase AtAPY1 Contradict a Direct Role in Purinergic Signaling” (PLoS ONE, 2015)
